The values that follow come from patent US9486464B2, “Composition and method of manufacture” (Persavita Ltd, priority 2010, dated 2016).

In data set [1] the test system is vascular endothelial cells. The conditions noted are these: cited from earlier work.
The subject of the next data set is human RPE cells. Conditions: cited from earlier work.
Another data set deals with mouse retina. Conditions: in vitro and in vivo, sirtuin-independent pathway; cited from earlier work.
A further data set relates to retina. Conditions: oral consumption in mice; cited from earlier work.
The next data set has as its system primary human RPE cells. Description: Light-induced phototoxicity in primary human RPE cells, viability by MTT assay. Format: cell-based. Conditions: pre-treatment 100 μM crocin, 1 μM resveratrol or both; 300 mW/cm^2 for 60 min; FIG. 3. Background: Tetrazolium dyes change colour on reduction, which living cells bring about.
The subject of a further data set is primary RPE cells. The data set is described as follows: Toxicity testing on RPE cell cultures (MTT assay). The conditions noted are these: 24 hours of exposure; crocin 10 μM to 500 μM, resveratrol 0.1 μM to 25 μM.
Data set [2] concerns bovine and primate retinal cell cultures. Conditions: 160 μM crocin; cited from earlier work.
Another data set deals with mammalian retina. Conditions: after exposure to damaging light; cited from earlier work.

Procedure for primary RPE cells: (§1) When implementing the method, concentrations of 10 μM to 500 μM crocin and 0.1 μM to 25 μM resveratrol are beneficially employed for toxicity characterization. Moreover, concentrations of 100 μM crocin and 1 μM resveratrol are beneficially employed to investigate synergistic effects against light-induced phototoxicity with a final DMSO concentration of 0.1%. Beneficially, DMSO is added to cultures at 0.1% (v/v) as a solvent control.
Dulbecco-modified Eagle medium (DMEM, obtainable from Biochrom, Berlin, Germany) supplemented with 10% fetal calf serum (FCS, obtainable from Biochrom, Berlin, Germany) was used as the cell culture medium when undertaking the experimental tests.
For determining cell survival rate after the aforesaid illumination, the tetrazolium dye-reduction assay (MTT); 3-[4,5-methylthiazol-2-yl]-2,2-diphenyl tetrazolium bromide) is beneficially used for determining the cell survival rate after aforesaid illumination has been applied. […] The serum-free cell culture medium is beneficially removed, the cells then washed with PBS, and thereafter 1000 μL of MTT solution (1.5 mL MTT stock, 2 mg/mL in PBS, together with 28.5 mL MEM) added to each well in the cell culture. […] Thereafter, absorption is beneficially measured by employing a scanning multiwell spectrophotometer operating at an interrogating radiation wavelength of 550 nm (apparatus obtainable from Molecular Probes). […]
Procedure for primary human RPE cells: as §1
For preparing the cell culture medium, primary RPE cells from three human donors (obtained 3 to 10 hours postmortem) without any history of eye disease were obtained from the Eye Bank of Ludwig Maximilian University. Dulbecco-modified Eagle medium (DMEM, obtainable from Biochrom, Berlin, Germany) supplemented with 10% fetal calf serum (FCS, obtainable from Biochrom, Berlin, Germany) was used as the cell culture medium when undertaking the experimental tests. […]
The aforesaid illumination is beneficially obtained from a spot-light source (LC-8, obtainable from Hamamatsu Photonics, Japan), although other illumination sources are optionally employed. […] For obtaining accurate experimental measurements, the illumination power and spectral range of illumination employed for the tests are beneficially measured using a spectrometer (C10083MD, obtainable from Hamamatsu Photonics), although other measuring instruments may be optionally employed. […]

Regarding `Oc1ccc(/C=C/c2cc(O)cc(O)c2)cc1` [resveratrol, 3,5,4″-trihydroxystilbene], the “proliferation and migration of vascular endothelial cells” value in data set [1] was “inhibiting proliferation and migration”. The “effect on acrolein-induced oxidative stress” value in the data set with human RPE cells is “protective effects”. The pathological angiogenesis entry with mouse retina is “inhibit pathological angiogenesis”. Further, in the data set on retina, the “retinal degradation related to light damage” value was “capable of preventing retinal degradation”. For the same molecule, in the data set with primary human RPE cells, the “decrease in viability of RPE cells after light exposure compared with cells not treated” value was “significantly smaller decrease in viability”.
On to `CC(/C=C/C=C(\C)C(=O)O[C@@H]1O[C@H](CO[C@@H]2O[C@H](CO)[C@@H](O)[C@H](O)[C@H]2O)[C@@H](O)[C@H](O)[C@H]1O)=C\C=C\C=C(C)\C=C\C=C(/C)C(=O)O[C@@H]1O[C@H](CO[C@@H]2O[C@H](CO)[C@@H](O)[C@H](O)[C@H]2O)[C@@H](O)[C@H](O)[C@H]1O` [crocin], for which the “toxic effects in respect of RPE cell cultures” value with primary RPE cells is on record as “no significant toxic effects”. Besides, the “photoreceptors surviving light exposure” value in data set [2] is listed as “more than 90%”. Moreover, the “decrease in viability of RPE cells after light exposure compared with cells not treated” value in the data set with primary human RPE cells was “significantly smaller decrease in viability”.
Consider `CC1=C(/C=C/C(C)=C/C=C/C(C)=C/C=C/C=C(C)/C=C/C=C(C)/C=C/C2=C(C)CCCC2(C)C)C(C)(C)CCC1` [beta-carotene], for which, in the data set with mammalian retina, the “retinal morphology and function” value is “ineffective for maintaining retinal function, and only improved morphology”.
